In ChEMBL document CHEMBL1909046, “DrugMatrix in vitro pharmacology data”:

Target: T1, Androgen receptor (Rattus norvegicus, UniProt P15207)
T1 sequence (P15207 whole entry): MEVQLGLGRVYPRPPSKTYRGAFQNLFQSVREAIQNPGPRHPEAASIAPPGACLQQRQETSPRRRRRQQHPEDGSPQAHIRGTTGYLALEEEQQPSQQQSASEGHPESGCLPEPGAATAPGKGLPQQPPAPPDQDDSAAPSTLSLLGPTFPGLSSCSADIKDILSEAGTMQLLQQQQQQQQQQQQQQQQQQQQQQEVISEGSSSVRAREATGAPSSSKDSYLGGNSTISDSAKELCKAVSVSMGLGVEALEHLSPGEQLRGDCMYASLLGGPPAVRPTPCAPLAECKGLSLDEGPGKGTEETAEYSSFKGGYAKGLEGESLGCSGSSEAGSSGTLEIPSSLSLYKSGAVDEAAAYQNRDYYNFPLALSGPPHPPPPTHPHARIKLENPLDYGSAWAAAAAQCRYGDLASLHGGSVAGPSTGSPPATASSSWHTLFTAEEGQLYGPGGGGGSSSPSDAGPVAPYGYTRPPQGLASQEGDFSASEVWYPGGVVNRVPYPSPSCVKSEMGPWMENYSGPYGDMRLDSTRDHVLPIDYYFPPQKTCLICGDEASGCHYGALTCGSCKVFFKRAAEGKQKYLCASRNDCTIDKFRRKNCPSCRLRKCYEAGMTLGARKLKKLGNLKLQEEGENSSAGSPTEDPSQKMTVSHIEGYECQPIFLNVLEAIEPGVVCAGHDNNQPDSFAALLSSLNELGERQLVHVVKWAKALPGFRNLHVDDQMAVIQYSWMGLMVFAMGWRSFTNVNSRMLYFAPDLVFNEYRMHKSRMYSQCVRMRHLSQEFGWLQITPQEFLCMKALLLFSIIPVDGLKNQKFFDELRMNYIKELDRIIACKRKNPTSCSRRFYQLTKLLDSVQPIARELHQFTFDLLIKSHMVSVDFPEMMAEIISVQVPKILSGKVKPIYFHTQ

C[C@H]1C[C@@H]2[C@H]([C@@H](O)C[C@@]3(C)[C@H]2CC[C@]3(O)C(=O)CO)[C@@]2(C)C=CC(=O)C=C12 [METHYLPREDNISOLONE]
IC50: 26.7 µM
Ki: 17.8 µM
